Columns and labels:
HIV = HIV replication (p24 in culture supernatant) in PBMC cultures without anti-retroviral drugs; format: cell-based, human; details: no anti-retroviral drugs
Excerpt: (§1) The percent of CD8+ cells in the culture increased with lower concentrations of CD3,8 BSMAB. […] Absent anti-retroviral drugs, this massive activation of HIV will eventually cause a sharp decrease in the CD4+ T cell population.

[1] = tested on: PBMCs isolated from HIV-infected subjects; test: culture of PBMCs from HIV-infected subjects without anti-retroviral drugs: T cell subsets; format: cell-based, human; details: no anti-retroviral drugs
Excerpt: as §1

phytohemagglutinin [PHA]
HIV replication (p24 in supernatant) (HIV): induced increased HIV replication
T cell subsets activated [1]: both CD4+ and CD8+ T cells were activated
selective outgrowth of CD4+ T cells [1]: No selective outgrowth of the CD4+ T cells occurred

From patent publication US6893813B2, “Methods for treatment of HIV and other infections using a T cell or viral activator and anti-retroviral combination therapy” (priority 1997, dated 2005)
